Earlier results as cited in patent US9700504B2, “Composition and method for an intradermal hair growth solution” (priority 2012, dated 2017).

Tested on: human hair follicles
Conditions: ex vivo human hair follicles and cultured dermal papilla cells

In the case of “L-alanyl-L-histidyl-L-lysine-Cu^2+ [AHK-Cu]”, the “effect on human hair growth” value is given as “promotes the growth of human hair follicles”.
